US11707539B2, “FAP-targeted radiopharmaceuticals and imaging agents, and uses related thereto” (Trustees of Tufts College, priority 2020, dated 2023)

Legend:
[1] = Radiochemical purity by HPLC on storage at room temperature; format: physicochemical; conditions: 4 hours at room temperature
Protocol: The labeling efficiency was analyzed by instant thin layer chromatography (iTLC) and was typically >98%. For iTLC analysis, 1 μL of diluted labeling solution was applied to a strip of iTLC-SA chromatography paper (Agilent P/N A120B12, 114×2.5 mm) and developed in 0.1M citrate buffer (8 cm solvent migration) to assess free ^177Lu (Rf >0.5) and [^177Lu]-6555 (Rf ˜0). The iTLC strips were analyzed using an Eckert & Ziegler AR-2000 Radio-TLC Imaging Scanner. The radiochemical purity was analyzed by high performance chromatography (HPLC) and was typically >90%. Briefly, the product was analyzed using a Phenomenex Luna 3.0 μm C18(2), 100A, 150 mm×4.6 mm column. Eluent A: 50 mM ammonium acetate in water, eluent B: acetonitrile. Gradient: 2% B from 0-5 min; 2% to 26% B from 5-20 min; 26% to 98% B from 20-25 min; 98% to 2% B from 25-26 min; 2% B from 26-30 min. Flow rate: 1.0 mL/min, Radio-HPLC detector: NaI (Eckert & Zeigler FC-1000), UV: 215 nm. The radiochemical purity remained >90% for three days at room temperature.
The above depicted radiopharmaceutical [^177Lu]-6952 can be prepared as described in Example 19 using the radiochemical precursor 6952 (Example 14 above). The labeling efficiency was analyzed by instant thin layer chromatography (iTLC) and was typically >98%. […] The iTLC strips were analyzed using an Eckert & Ziegler AR-2000 Radio-TLC Imaging Scanner. The radiochemical purity was analyzed by high performance chromatography (HPLC) and was typically >90%. Briefly, the product was analyzed using a Phenomenex Luna 3.0 m C18(2), 100A, 150 mm×4.6 mm column. […]
The labeling efficiency was analyzed by instant thin layer chromatography (iTLC) and was typically >95%. […] The iTLC strips were analyzed using an Eckert & Ziegler AR-2000 Radio-TLC Imaging Scanner. The radiochemical purity was analyzed by high performance chromatography (HPLC) and was typically >95%. Briefly, the product was analyzed using a Phenomenex Luna 3.0 m C18(2), 100Å, 150 mm×4.6 mm column. […]
The labeling efficiency was analyzed by instant thin layer chromatography (iTLC) and was typically >95%. […]

[2] = tested on: HEK-mFAP tumor-bearing mice; assay: 68Ga dynamic PET/CT imaging; format: in vivo, mouse; conditions: dynamic PET over 60 min, IV bolus
Protocol: Part 1. Dynamic PET Imaging. The aim of the study is to perform ^68Ga-6555 PET/CT dynamic imaging in HEK-mFAP tumor-bearing mice to assess tumor uptake and retention over time, as well as non-specific uptake. HEK-mFAP tumor-bearing mice were used for the study (N=3). ^68Ga-6555 (prepared as per Example 20) PET imaging was carried out on a dedicated small animal PET/CT scanner (Siemens Multimodality Inveon, Siemens Medical Solutions USA, Inc.). The mice were anesthetized using 3% isoflurane/medical air inhalation prior to the radiotracer injection and throughout the scan duration. Warming was used to maintain healthy core body temperature of the mice during periods of unconsciousness. Following a bolus intravenous injection (via the lateral tail vein) of ^68Ga-6555 (average of 8 MBq, 7.7-8.1 MBq range), a dynamic emission scan was acquired in list mode format over 60 min. […] The reconstructed PET/CT images were analyzed with the Siemens Inveon Research Workplace software. The radioactivity retention within the selected tissue was obtained from mean voxel intensity values within the VOI and then converted to megabecquerels per milliliter using the calibration factor determined for the Inveon PET System. […] We used the maximum SUV value (SUVmax) within a VOI as a quantitative imaging metric which is independent of tissue intrinsic variations. […]

In the case of `C[C@@H](NC(=O)c1ccc(CNC(=O)CN2CCN3CCN4CCN(CC2)CC(=O)[O][Ga]([O]C(=O)C3)[O]C(=O)C4)cc1)C(=O)N1CCC[C@H]1B(O)O` [[^68Ga]-6555], the radiochemical purity remained [1] is reported as greater than 95%, the “time of accumulation in the tumor (time-vs-activity curve)” value [2] is reported as less than 5 min and the “time of reaching a plateau in the tumor” value [2] is reported as 60 min.
